Assay results reported in paper PMC3636379, “Intracellular accumulation of aggregated pyroglutamate amyloid beta: convergence of aging and Aβ pathology at the lysosome” (Age, 2012).

How the values were obtained:
[1] = target: T1, recombinant CTD (Homo sapiens, UniProt P07339); experiment: Degradation assay of internally quenched fluorescent Aβ peptides with cathepsin D; format: in vitro ADME; details: 10 pmol, 5 mU recombinant CTD, 100 mM sodium acetate pH 5.0, 37 °C, fluorescence ex 485 / em 520 nm, mean ± SD, two independent experiments (n = 10)
T1 construct: purchased Sigma
T1 sequence (P07339 65-412): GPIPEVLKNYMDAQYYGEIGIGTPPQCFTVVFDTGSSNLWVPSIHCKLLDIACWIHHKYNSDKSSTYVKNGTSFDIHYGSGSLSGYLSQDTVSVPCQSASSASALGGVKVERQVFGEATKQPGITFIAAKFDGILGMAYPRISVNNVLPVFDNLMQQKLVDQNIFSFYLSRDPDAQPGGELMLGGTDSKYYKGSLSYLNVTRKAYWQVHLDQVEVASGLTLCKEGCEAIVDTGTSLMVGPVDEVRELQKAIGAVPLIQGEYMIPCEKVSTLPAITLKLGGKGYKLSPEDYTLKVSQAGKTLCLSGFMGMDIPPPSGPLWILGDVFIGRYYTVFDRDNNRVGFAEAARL
Procedure: Therefore, we investigated whether the pE-modified Aβ is more resistant to lysosomal degradation. To this end, a degradation assay with the major lysosomal hydrolase CTD was performed. For this purpose, we used internally quenched fluorescent Aβ peptides. Degradation of the peptides removes the quencher and restores the fluorescent signal (Reits et al. [2003]), thus allowing analysis of degradation over time by monitoring the increase in fluorescence. […] To investigate the effect of aggregation on degradation, we used pre-aggregated Aβ1-40 and Aβ3(pE)-40 in the CTD assay. […] Upon aggregation, the overall degradation is hampered, but the observed difference between the peptides is retained.
Aβ peptides containing fluorophore and quencher were synthesized by solid phase synthesis using an Fmoc strategy at the NKI peptide facility. […] Peptides were purified by RP-HPLC and evidenced the expected molecular mass as determined by mass spectrometry.
Immediately prior to use, HFIP-treated peptide films of fluorescently labeled internally quenched Aβ were resuspended in DMSO and further diluted in PBS. […] Degradation of quenched peptides was followed by monitoring the increase in fluorescence (excitation, 485–12 nm; emission, 520 nm, Fluostar Omega) at 37 °C. Background fluorescence of peptide incubated in buffer without CTD controls was subtracted. […]

[2] = system: differentiated SK-N-SH cells; experiment: Lysosomal membrane permeabilization: immunofluorescent staining of CTD; format: cell-based; details: 1 μM Aβ oligomers or hydroxychloroquine, 16 h; confocal microscopy
Procedure: To investigate whether Aβ3(pE)-42 oligomers affect the integrity of the lysosomes, lysosomal membrane permeabilization (LMP) was analyzed in differentiated SK-N-SH cells. A distinctive sign of LMP is the translocation of soluble lysosomal components, from the lysosomal lumen to the cytosol (Boya et al. [2003]). Differentiated SK-N-SH cells were treated with Aβ oligomers and the leakage of cathepsin D (CTD), a soluble lysosomal enzyme, from the lysosomal lumen to the cytosol was analyzed after subcellular fractionation on Western blot and by immunofluorescent staining. Treatment with Aβ3(pE)-42 oligomers led to a decrease of CTD in the membrane fraction (which also contained the lysosomes) whereas the cytosolic CTD was increased. […] The result was confirmed by immunofluorescent staining of CTD. Untreated cells reveal a particulate staining pattern, indicative of its localization within lysosomes (Fig. 1b). […] SK-N-SH and HeLa cells were cultured in Dulbecco’s modified Eagle’s medium with GlutaMAX (Gibco BRL, Carlsbad, CA, USA) supplemented with 10 % fetal calf serum (FCS, Gibco BRL), 100 μg/ml streptomycin, and 100 U/ml penicillin. Cell lines are routinely checked for mycoplasma contamination using a specific 16S rRNA PCR-based assay; all cells used in this study were mycoplasma free. […]

[3] = system: differentiated SK-N-SH cells; experiment: Lysosomal membrane permeabilization: CTD in subcellular fractions, Western blot; format: cell-based; details: 1 μM oligomers, 16 h, three experiments
Procedure: To investigate whether Aβ3(pE)-42 oligomers affect the integrity of the lysosomes, lysosomal membrane permeabilization (LMP) was analyzed in differentiated SK-N-SH cells. A distinctive sign of LMP is the translocation of soluble lysosomal components, from the lysosomal lumen to the cytosol (Boya et al. [2003]). Differentiated SK-N-SH cells were treated with Aβ oligomers and the leakage of cathepsin D (CTD), a soluble lysosomal enzyme, from the lysosomal lumen to the cytosol was analyzed after subcellular fractionation on Western blot and by immunofluorescent staining. Treatment with Aβ3(pE)-42 oligomers led to a decrease of CTD in the membrane fraction (which also contained the lysosomes) whereas the cytosolic CTD was increased. […] The result was confirmed by immunofluorescent staining of CTD. Untreated cells reveal a particulate staining pattern, indicative of its localization within lysosomes (Fig. 1b).
SK-N-SH and HeLa cells were cultured in Dulbecco’s modified Eagle’s medium with GlutaMAX (Gibco BRL, Carlsbad, CA, USA) supplemented with 10 % fetal calf serum (FCS, Gibco BRL), 100 μg/ml streptomycin, and 100 U/ml penicillin. Cell lines are routinely checked for mycoplasma contamination using a specific 16S rRNA PCR-based assay; all cells used in this study were mycoplasma free. […]

| Substance | time to reach the half-max fluorescence of degradation (t 1/2) ([1]; not pre-aggregated, internally quenched fluorescent peptide (Oregon green 488 at aa 22, dabcyl at aa 12)) | time to reach the half-max fluorescence of degradation (t 1/2) ([1]; pre-aggregated peptide, internally quenched fluorescent peptide) | CTD staining pattern (release from lysosomes to cytoplasm) [2] | CTD in the membrane fraction (containing the lysosomes) [3] | cytosolic CTD [3] |
| --- | --- | --- | --- | --- | --- |
| Aβ1-40: internally quenched fluorescent Aβ peptide, Oregon green 488 at amino acid 22 and dabcyl at amino acid 12; pre-aggregated or not | 48.9 ± 4.3 min | 63.6 ± 10.0 min |  |  |  |
| Aβ1-42: synthetic amyloid beta 1-42 purchased from Anaspec, used as oligomers |  |  | same pattern but to a lesser extent | did not change | did not change |
